According to patent publication US12060347B2 (BRISTOL-MYERS SQUIBB COMPANY, priority 2016, dated 2024):

Biological target: T1, human PAR4 (Homo sapiens, UniProt Q96RI0)
T1 construct: expressed in transfected cells; host or cells: HEK293 PAR4 Clone 1.2A (BMS Arctic ID 383940)
T1 sequence (Q96RI0 18-385): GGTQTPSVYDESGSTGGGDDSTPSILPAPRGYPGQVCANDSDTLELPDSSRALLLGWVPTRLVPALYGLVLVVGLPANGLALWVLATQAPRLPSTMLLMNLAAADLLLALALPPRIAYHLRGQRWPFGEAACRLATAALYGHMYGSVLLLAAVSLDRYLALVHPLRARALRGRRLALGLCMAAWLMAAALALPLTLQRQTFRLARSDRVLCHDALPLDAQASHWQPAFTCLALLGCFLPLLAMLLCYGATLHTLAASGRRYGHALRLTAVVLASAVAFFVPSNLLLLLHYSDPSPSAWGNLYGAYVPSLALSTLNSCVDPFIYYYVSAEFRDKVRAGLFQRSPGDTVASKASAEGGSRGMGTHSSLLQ
Test: PAR4 FLIPR assay: antagonism of agonist-peptide-induced calcium mobilization in PAR4-expressing HEK293 cells
Assay type: cell-based
Details: H-Ala-Phe(4-F)-[…]NH2-induced intracellular calcium mobilization, 11-point curves

SMILES | IC50 [nM]
COc1cc(C(O)C2(C)CCOCC2)c2nc(-c3cc(C)cc4nc(OC)cnc34)sc2c1 (stereo not drawn) [Example 674, (6-methoxy-2-(2-methoxy-7-methylquinoxalin-5-yl)benzo[d]thiazol-4-yl)(4-methyltetrahydro-2H-pyran-4-yl)methanol] | 20
COc1cc(F)cc(C(O)c2cc(OC)cc3sc(-c4cc(C)cc5nc(OC)cnc45)nc23)c1 (stereo not drawn) [Example 675, (3-fluoro-5-methoxyphenyl)(6-methoxy-2-(2-methoxy-7-methylquinoxalin-5-yl)benzo[d]thiazol-4-yl)methanol] | 10
COc1cc(C(O)C2(C)CCCCC2)c2nc(-c3cc(C)cc4nc(OC)cnc34)sc2c1 (stereo not drawn) [Example 676, (6-methoxy-2-(2-methoxy-7-methylquinoxalin-5-yl)benzo[d]thiazol-4-yl)(1-methylcyclohexyl)methanol] | 3.2
COc1cc(C(C)O)c2nc(-c3cc(C)cc4nc(OC)cnc34)sc2c1 (stereo not drawn) [Example 677, 1-(6-methoxy-2-(2-methoxy-7-methylquinoxalin-5-yl)benzo[d]thiazol-4-yl)ethan-1-ol] | 3.8
COc1cnc2c(-c3nc4cc(F)c(OC[C@@H](C)OC(=O)Nc5cnc(C)nc5)nc4s3)cc(C)cc2n1 [Example 678, (R)-1-((6-fluoro-2-(2-methoxy-7-methylquinoxalin-5-yl)thiazolo[5,4-b]pyridin-5-yl)oxy)propan-2-yl (2-methylpyrimidin-5-yl)carbamate] | 1
COc1cnc2c(-c3nc4cc(F)c(OC[C@@H](C)OC(=O)Nc5cnc(OC)nc5)nc4s3)cc(C)cc2n1 [Example 679, (R)-1-((6-fluoro-2-(2-methoxy-7-methylquinoxalin-5-yl)thiazolo[5,4-b]pyridin-5-yl)oxy) propan-2-yl (2-methoxypyrimidin-5-yl)carbamate] | 2.5
COc1cnc2c(-c3nc4cc(F)c(OC[C@@H](C)OC(=O)Nc5ccncc5)nc4s3)cc(C)cc2n1 [Example 680, (R)-1-((6-fluoro-2-(2-methoxy-7-methylquinoxalin-5-yl)thiazolo[5,4-b]pyridin-5-yl)oxy) propan-2-yl pyridin-4-ylcarbamate] | 0.8
COc1cnc2c(-c3nc4cc(F)c(OC[C@@H](C)OC(=O)Nc5ccc(C)nc5)nc4s3)cc(C)cc2n1 [Example 681, (R)-1-((6-fluoro-2-(2-methoxy-7-methylquinoxalin-5-yl)thiazolo[5,4-b]pyridin-5-yl)oxy) propan-2-yl (6-methylpyridin-3-yl)carbamate] | 0.4
COc1cnc2c(-c3nc4cc(F)c(OC[C@@H](C)OC(=O)Nc5cncc(F)c5)nc4s3)cc(C)cc2n1 [Example 682, (R)-1-((6-fluoro-2-(2-methoxy-7-methylquinoxalin-5-yl)thiazolo[5,4-b]pyridin-5-yl)oxy) propan-2-yl (5-fluoropyridin-3-yl)carbamate] | 0.9
COc1cnc2c(-c3nc4cc(F)c(OC[C@@H](C)OC(=O)Nc5ccc6[nH]c(=O)oc6c5)nc4s3)cc(C)cc2n1 [Example 683, (R)-1-((6-fluoro-2-(2-methoxy-7-methylquinoxalin-5-yl)thiazolo[5,4-b]pyridin-5-yl)oxy) propan-2-yl (2-oxo-2,3-dihydrobenzo[d]oxazol-6-yl)carbamate] | 0.7
COc1cnc2c(-c3nc4cc(F)c(OC[C@@H](C)OC(=O)Nc5cccnc5)nc4s3)cc(C)cc2n1 [Example 684, (R)-1-((6-fluoro-2-(2-methoxy-7-methylquinoxalin-5-yl)thiazolo[5,4-b]pyridin-5-yl)oxy) propan-2-yl pyridin-3-ylcarbamate] | 0.7
COc1cnc2c(-c3nc4cc(F)c(OC[C@@H](C)OC(=O)Nc5cnc(OCCO)nc5)nc4s3)cc(C)cc2n1 [Example 685, (R)-1-((6-fluoro-2-(2-methoxy-7-methylquinoxalin-5-yl)thiazolo[5,4-b]pyridin-5-yl)oxy) propan-2-yl (2-(2-hydroxyethoxy)pyrimidin-5-yl)carbamate] | 1.7
COc1cnc2c(-c3nc4cc(F)c(OC[C@@H](C)OC(=O)Nc5ccc(OCC(F)(F)CO)nc5)nc4s3)cc(C)cc2n1 [Example 687, (R)-1-((6-fluoro-2-(2-methoxy-7-methylquinoxalin-5-yl)thiazolo[5,4-b]pyridin-5-yl)oxy) propan-2-yl (6-(2,2-difluoro-3-hydroxypropoxy)pyridin-3-yl)carbamate] | 0.9
COc1cnc2c(-c3nc4cc(F)c(OC[C@@H](C)OC(=O)Nc5cnc(OC[C@@H](C)O)nc5)nc4s3)cc(C)cc2n1 [Example 688, (R)-1-((6-fluoro-2-(2-methoxy-7-methylquinoxalin-5-yl)thiazolo[5,4-b]pyridin-5-yl)oxy) propan-2-yl (2-((R)-2-hydroxypropoxy)pyrimidin-5-yl)carbamate] | 4.5
COC(=O)c1ncc(NC(=O)O[C@H](C)COc2nc3sc(-c4cc(C)cc5nc(OC)cnc45)nc3cc2F)cn1 [Example 689, methyl (R)-5-((((1-((6-fluoro-2-(2-methoxy-7-methylquinoxalin-5-yl)thiazolo[5,4-b]pyridin-5-yl)oxy)propan-2-yl)oxy)carbonyl)amino)pyrimidine-2-carboxylate] | 0.3
COC(=O)c1ccc(NC(=O)O[C@H](C)COc2nc3sc(-c4cc(C)cc5nc(OC)cnc45)nc3cc2F)cn1 [Example 690, methyl (R)-5-((((1-((6-fluoro-2-(2-methoxy-7-methylquinoxalin-5-yl)thiazolo[5,4-b]pyridin-5-yl)oxy)propan-2-yl)oxy)carbonyl)amino)picolinate] | 0.3
COc1cnc2c(-c3nc4cc(F)c(OC[C@@H](C)OC(=O)Nc5ccc(CCO)nc5)nc4s3)cc(C)cc2n1 [Example 691, (R)-1-((6-fluoro-2-(2-methoxy-7-methylquinoxalin-5-yl)thiazolo[5,4-b]pyridin-5-yl)oxy) propan-2-yl (6-(2-hydroxyethyl)pyridin-3-yl)carbamate] | 0.9
COc1cnc2c(-c3nc4cc(F)c(OC[C@@H](C)OC(=O)Nc5cnc(O[C@H](C)CO)nc5)nc4s3)cc(C)cc2n1 [Example 692, (R)-1-((6-fluoro-2-(2-methoxy-7-methylquinoxalin-5-yl)thiazolo[5,4-b]pyridin-5-yl)oxy) propan-2-yl (2-(((R)-1-hydroxypropan-2-yl)oxy)pyrimidin-5-yl)carbamate] | 1.8
COc1cnc2c(-c3nc4cc(F)c(OC[C@@H](C)OC(=O)Nc5cnc(O[C@@H](C)CO)nc5)nc4s3)cc(C)cc2n1 [Example 693, (R)-1-((6-fluoro-2-(2-methoxy-7-methylquinoxalin-5-yl)thiazolo[5,4-b]pyridin-5-yl)oxy) propan-2-yl (2-(((S)-1-hydroxypropan-2-yl)oxy)pyrimidin-5-yl)carbamate] | 1.3
COc1cnc2c(-c3nc4cc(F)c(OC[C@@H](C)OC(=O)Nc5ccc(CO)nc5)nc4s3)cc(C)cc2n1 [Example 694, (R)-1-((6-fluoro-2-(2-methoxy-7-methylquinoxalin-5-yl)thiazolo[5,4-b]pyridin-5-yl)oxy) propan-2-yl (6-(hydroxymethyl)pyridin-3-yl)carbamate] | 2.1
COc1cnc2c(-c3nc4cc(F)c(OC[C@@H](C)OC(=O)Nc5ccnc(CCO)c5)nc4s3)cc(C)cc2n1 [Example 696, (R)-1-((6-fluoro-2-(2-methoxy-7-methylquinoxalin-5-yl)thiazolo[5,4-b]pyridin-5-yl)oxy) propan-2-yl (2-(2-hydroxyethyl)pyridin-4-yl)carbamate] | 2.6
COc1cnc2c(-c3nc4cc(F)c(OC[C@@H](C)OC(=O)Nc5ccnc(OCCO)c5)nc4s3)cc(C)cc2n1 [Example 697, (R)-1-((6-fluoro-2-(2-methoxy-7-methylquinoxalin-5-yl)thiazolo[5,4-b]pyridin-5-yl)oxy) propan-2-yl (2-(2-hydroxyethoxy)pyridin-4-yl)carbamate] | 2.9
COc1cnc2c(-c3nc4cc(F)c(OC[C@@H](C)OC(=O)Nc5ccnnc5)nc4s3)cc(C)cc2n1 [Example 698, (R)-1-((6-fluoro-2-(2-methoxy-7-methylquinoxalin-5-yl)thiazolo[5,4-b]pyridin-5-yl)oxy) propan-2-yl pyridazin-4-ylcarbamate] | 17
COc1cnc2c(-c3nc4cc(F)c(OC[C@@H](C)OC(=O)Nc5ccnc(OCCC(C)(C)O)c5)nc4s3)cc(C)cc2n1 [Example 699, (R)-1-((6-fluoro-2-(2-methoxy-7-methylquinoxalin-5-yl)thiazolo[5,4-b]pyridin-5-yl)oxy) propan-2-yl (2-(3-hydroxy-3-methylbutoxy)pyridin-4-yl)carbamate] | 1.1
COc1cnc2c(-c3nc4cc(F)c(OC[C@@H](C)OC(=O)Nc5ccc(OCCO)nc5)nc4s3)cc(C)cc2n1 [Example 700, (R)-1-((6-fluoro-2-(2-methoxy-7-methylquinoxalin-5-yl)thiazolo[5,4-b]pyridin-5-yl)oxy) propan-2-yl (6-(2-hydroxyethoxy)pyridin-3-yl)carbamate] | 0.9
COc1cnc2c(-c3nc4cc(F)c(OC[C@@H](C)OC(=O)Nc5cnc(OC[C@H](C)O)nc5)nc4s3)cc(C)cc2n1 [Example 701, (R)-1-((6-fluoro-2-(2-methoxy-7-methylquinoxalin-5-yl)thiazolo[5,4-b]pyridin-5-yl)oxy) propan-2-yl (2-((S)-2-hydroxypropoxy)pyrimidin-5-yl)carbamate] | 2.7
COc1cnc2c(-c3nc4cc(F)c(OC[C@@H](C)OC(=O)Nc5cnc(OCCC(C)(C)O)nc5)nc4s3)cc(C)cc2n1 [Example 702, (R)-1-((6-fluoro-2-(2-methoxy-7-methylquinoxalin-5-yl)thiazolo[5,4-b]pyridin-5-yl)oxy) propan-2-yl (2-(3-hydroxy-3-methylbutoxy)pyrimidin-5-yl)carbamate] | 4.3
